Measured values as given in PMC11231114 (EJNMMI Research, 2024).
Several values for one entry are separate records, joined by “and”; a condition that tells them apart may be missing. Equal values may be shown once.

Key:
[1] = Dosimetry: human absorbed dose extrapolated from rat biodistribution (OLINDA/EXM); details: human estimate extrapolated from rats
From the text: The pharmacokinetics data from ex vivo biodistribution studies in rats were extrapolated to humans using the simplest allometric scaling model to estimate an effective dose in mSv/MBq. The dose calculation was done using computer software for internal dose assessment OLINDA/EXM® (Version 1.1, copyright Vanderbilt University, 2007).
This work estimated the human absorbed radiation dose based on a detailed description of activity organ distribution data for normal rats. […] Additionally, the obtained theoretical values for examined cardiotracers were compared with [^18F]flurpiridaz absorbed dose calculated in exercise stress subjects in humans (Table 6).

[2] = Blood activity clearance and pharmacokinetic parameters of radiolabelled compounds; format: in vivo; details: radiolabelled compound, rat
Description: Approximately 0.2 mL/31.1 MBq of compound was administered i.v. At established time points after injection (15 min, 30 min, 1 h, 2 h, 4 h and 6 h), the animals were euthanized by cervical dislocation and dissected. Selected organs and tissues were weighed, and their radioactivity was measured using a NaI(Tl) crystal gamma counter. The results were adjusted for the radioactive decay of ^18F. The physiological distribution was calculated and expressed in terms of the percentage of administrated dose found in each of the selected organs (%ID) or per gram of tissues/organ (%ID/g) with suitable standards of the injected dose.
For [^18F]SYN2 the initial fast decrease mainly represents the equilibrium between the intravascular and extravascular components, and the second slower phase represents the metabolism.

CN(C)c1ccc2cc3ccc(N(C)C)cc3[n+](CC[18F])c2c1 [[^18F]SYN2]
Absorbed dose per administrated activity, Adrenals [1]: 8.06E-03 mSv/MBq
Absorbed dose per administrated activity, Brain [1]: 2.84E-03 mSv/MBq
Absorbed dose per administrated activity, Breasts [1]: 2.93E-03 mSv/MBq
Absorbed dose per administrated activity, Gallbladder Wall [1]: 8.01E-03 mSv/MBq
Absorbed dose per administrated activity, Heart Wall [1]: 0.0415 mSv/MBq and 0.042 mSv/MBq and 4.15E-02 mSv/MBq
Absorbed dose per administrated activity, Kidneys [1]: 0.0704 mSv/MBq and 0.070 mSv/MBq and 7.04E-02 mSv/MBq
Absorbed dose per administrated activity, Liver [1]: 1.17E-02 mSv/MBq
Absorbed dose per administrated activity, Lower Large Intestine Wall [1]: 1.18E-02 mSv/MBq
Absorbed dose per administrated activity, Lungs [1]: 2.16E-02 mSv/MBq
Absorbed dose per administrated activity, Muscle [1]: 1.03E-02 mSv/MBq
Absorbed dose per administrated activity, Osteogenic Cells [1]: 4.02E-03 mSv/MBq
Absorbed dose per administrated activity, Ovaries [1]: 7.10E-03 mSv/MBq
Absorbed dose per administrated activity, Pancreas [1]: 0.0285 mSv/MBq and 2.85E-02 mSv/MBq
Absorbed dose per administrated activity, Red Marrow [1]: 4.77E-03 mSv/MBq
Absorbed dose per administrated activity, Skin [1]: 2.65E-03 mSv/MBq
Absorbed dose per administrated activity, Small Intestine [1]: 1.84E-02 mSv/MBq
Absorbed dose per administrated activity, Spleen [1]: 2.13E-02 mSv/MBq
Absorbed dose per administrated activity, Stomach Wall [1]: 1.19E-02 mSv/MBq
Absorbed dose per administrated activity, Testes [1]: 4.97E-03 mSv/MBq
Absorbed dose per administrated activity, Thymus [1]: 5.48E-03 mSv/MBq
Absorbed dose per administrated activity, Thyroid [1]: 2.49E-02 mSv/MBq
Absorbed dose per administrated activity, Total Body [1]: 7.67E-03 mSv/MBq
Absorbed dose per administrated activity, Upper Large Intestine Wall [1]: 2.01E-02 mSv/MBq
Absorbed dose per administrated activity, Urinary Bladder Wall [1]: 5.29E-03 mSv/MBq
Absorbed dose per administrated activity, Uterus [1]: 6.27E-03 mSv/MBq
Effective Dose Equivalent [1]: 1.71E-02 mSv/MBq
Effective dose [1]: 0.0109 mSv/MBq and 1.09E-02 mSv/MBq
AUCt ([2]; i.v.): 0.421 µg·h/mL
Cl ([2]; i.v.): 0.012 L/h/kg
Cmax ([2]; i.v.): 0.07639 µg/mL
Tmax ([2]; i.v.): 0 h
Vz ([2]; i.v.): 1.43 L/kg
T½ ([2]; calculated from Eq. (0.693 · VZ · AUC)/dose): 79.9 h
